In patent publication US8168642B2, “Dihydropyrimidine compounds and their uses in preparation of medicaments for treating and preventing antiviral diseases” (Beijing Molecule Science and Technology Co., Ltd., priority 2006, dated 2012):
pIC50: −log10 of the molar value.

Legend:
HBV DNA = assay: Antiviral activity: inhibition of HBV DNA in supernatant of HepG 2.2.15 cells (dot blot hybridization); assay type: cell-based; details: Hepatitis B virus, HepG2.2.15, 192 h, 8 days incubation, HB-specific DNA in supernatant, read-out: IC50 (inhibitory effect on HBV DNA)
Method: The antiviral effect of the compound of the present invention is determined according to the methods described by Sells, et al (M. A. Sells, M. L. Chen, G. Proc. Natl. Acad. Sci. 1987, 84, 1005-1009) and Korba, et al (B. E. Korba, J. L. Gerin Antiviral Research 1992, 19, 55-70).
(§1) The antiviral test was carried out in a 96-cell microtiter plate. The first column of the plate only contained a culture medium and HepG 2.2.15 cells, as a blank control.
(§2) First, a stock solution ([…]) of a test compound was dissolved in DMSO, and further diluted with a culture medium for growth of HepG 2.2.15 cells. Usually, the compound of the present invention was transferred by suction at a test concentration of 100 μg/ml (the first test concentration) to each cell of the second column of the microtiter plate, and then diluted with the culture medium for growth plus 2% fetal bovine serum (25 μL), by 2 times once, up to 2^10 times at the maximum.
(§3) Then, 225 μL of a suspension of HepG 2.2.15 cells in the culture medium for growth plus 2% fetal bovine serum (5×10^4 cells/ml) was added to each cell of the 96-cell microtiter plate.
(§4) The test mixture was incubated under the conditions of 37° C., 5% CO2 for 4 days. Then, the supernatant was removed by suction, and to each cell 225 μL of a new-prepared culture medium for growth was added. Again, the compound of the present invention was added with a solution of 25 μL. The obtained mixture was further incubated for 4 days.
Thereafter, the supernatant was collected, and sucked in vacuum to a 96-cell dot blot chamber covered by nylon film (used in accordance with the instructions for use provided by the manufacturer).
Determination of Antiviral Activity
After the supernatant was transferred onto the nylon film of the dot blot device (see the contents hereinabove), the supernatant of HepG 2.2.15 cells was denaturated (1.5 M NaCl/0.5 M NaOH), neutralized (3 M NaCl/0.5 M Tris. HCl, pH 7.5) and washed (2×SSC). Then, the filter film was kept at 120° C. for 2-4 hours, whereby DNA was baked on the filter film.
Usually, viral DNA of HepG 2.2.15 cells treated on the nylon film was detected by using a non-radioactive digoxigenin labeled HB-specific DNA probe. Wherein, each time the probe was labeled with digoxigenin, purified and hybridized according to the directions for use given by the manufacturer.
Briefly, pre-hybridization and hybridization were conducted with 5×SSC, 1× blocking agent, 0.1% N-lauroyl sarcosine, 0.02% SDS and 100 μg sperm DNA of black carp. After pre-hybridization at 60° C. for 30 min, a specific hybridization (at 60° C. for 14 hr) was conducted with 20-40 ng/ml digoxigenin labeled denaturalized HBV specific DNA. Then, the film was washed, followed by HBV DNA detection with digoxigenin antibody.
The immunology detection of digoxigenin labeled DNA was conducted according to the directions for use given by the manufacturer.
Briefly speaking, the film was washed and pre-hybridized with a blocking agent (in accordance with the directions for use given by the manufacturer), and then hybridized with an anti-DIG antibody that had been previously coupled onto an alkaline phosphatase for 30 min. After washing, an alkaline phosphatase substrate CSPD was added, and cultured together with the filter for 5 min, and then wrapped in a plastic film, followed by further culturing at 37° C. for 15 min. The filter was exposed to X-ray, and the chemical luminous signal (culturing for 10 min to 2 hr according to the signal strength) of HB-specific DNA on the film was detected, whereby a half inhibitory concentration (IC50) was calculated.
The half inhibitory concentration (IC50) refers to the concentration of the compound of the present invention which reduces the HB-specific band by 50% as compared with the untreated sample.

HepG 2.2.15 cells = assay: Cytotoxicity in HepG 2.2.15 cells (cell morphology under microscope after 8 days, Reed&Muench); assay type: cell-based; details: pathological change of cells after 8 days
Method: as §1, §2, §3, §4
Prior to collection of the supernatant for determination of the antiviral effect, the change in cytotoxicity of HepG 2.2.15 cells was investigated by using optical microscopic technique or biochemical detection method (e.g., Alamar Blue staining or Trypan Blue staining).
Determination of Cytotoxicity
The substance-induced change in cytotoxicity in HepG 2.2.15 cells or in inhibition of the cells could be determined by using, e.g., optical microscopic technique, and expressed by the change of cell morphology. Such substance-induced changes, e.g., cell lysis, cavity formation or change in cell morphology, in HepG 2.2.15 cells were apparent as compared to the untreated cells.
Taking the observed pathological change of cells as index, the pathological change of cells was observed under microscope after 8 days, a complete destroy being indicated as 4; 75% being indicated as 3; 50% being indicated as 2; 25% being indicated as 1; and no pathological change being indicated as 0. The average extents of pathological change of cells and the inhibition percentages at various concentrations were calculated. According to Reed&Muench method, a half toxic concentration (TC50) and a maximum non-toxic concentration (TC0) were calculated.
TC50 refers to the concentration of the compound of the present invention when 50% of cells have a similar morphology to the corresponding cells as a control.

Structure (SMILES)	pIC50 (HBV DNA)	TD50 (HepG 2.2.15 cells) [µM]	melting point [°C]
CCOC(=O)C1=C(C)NC(c2cncs2)=NC1c1ccc(F)cc1Cl (stereo not drawn) [Example 42, ethyl 2-(thiazol-5-yl)-4-(2-chloro-4-fluorophenyl)-6-methyl-1,4-dihydro-pyrimidin-5-carboxylate]	5.44	>32.90	121 to 125
CCOC(=O)C1=C(C)NC(c2cnc(NC(C)=O)s2)=NC1c1ccc(F)cc1Cl (stereo not drawn) [Example 43, ethyl 2-(2-acetylaminothiazol-5-yl)-4-(2-chloro-4-fluorophenyl)-6-methyl-1,4-dihydro-pyrimidin-5-carboxylate]	5.64	76.43	> 250
CCOC(=O)C1=C(C)NC(c2cnc(N)s2)=NC1c1ccc(F)cc1Cl (stereo not drawn) [Example 44, ethyl 2-(2-aminothiazol-5-yl)-4-(2-chloro-4-fluorophenyl)-6-methyl-1,4-dihydro-pyrimidin-5-carboxylate]	5.57	22.56	132 to 135
CCOC(=O)C1=C(C)NC(c2nccn2C)=NC1c1ccc(F)cc1Cl (stereo not drawn) [Example 49, ethyl 2-(N-methyl-1H-imidazol-2-yl)-4-(2-chloro-4-fluorophenyl)-6-methyl-1,4-dihydro-pyrimidin-5-carboxylate]	6.57	38.83	166 to 167
CCOC(=O)C1=C(C)NC(c2nccn2Cc2ccccc2)=NC1c1ccc(F)cc1 (stereo not drawn) [Example 51, ethyl 2-(N-benzyl-1H-imidazol-2-yl)-4-(4-fluorophenyl)-6-methyl-1,4-dihydro-pyrimidin-5-carboxylate]	5.18	36.87	162 to 164
CCOC(=O)C1=C(C)NC(c2nccn2C)=NC1c1ccc(F)cc1 (stereo not drawn) [Example 53, ethyl 2-(N-methyl-1H-imidazol-2-yl)-4-(4-fluorophenyl)-6-methyl-1,4-dihydro-pyrimidin-5-carboxylate]	4.99	281.14	134 to 136
COC(=O)C1=C(C)NC(c2c(F)cccc2F)=NC1c1ccc(F)cc1Cl (stereo not drawn) [Example 55, methyl 2-(2,6-difluorophenyl)-4-(2-chloro-4-fluorophenyl)-6-methyl-1,4-dihydro-pyrimidin-5-carboxylate]	5.40	60.84	126 to 128
CCOC(=O)C1=C(C)NC(c2c(F)cccc2F)=NC1c1ccc(F)cc1Cl (stereo not drawn) [Example 56, ethyl 2-(2,6-difluorophenyl)-4-(2-chloro-4-fluorophenyl)-6-methyl-1,4-dihydro-pyrimidin-5-carboxylate]	5.69	117.50	163 to 165
CCOC(=O)C1=C(C)NC(c2c(F)cc(F)cc2F)=NC1c1ccc(F)cc1Cl (stereo not drawn) [Example 58, ethyl 2-(2,4,6-trifluorophenyl)-4-(2-chloro-4-fluorophenyl)-6-methyl-1,4-dihydro-pyrimidin-5-carboxylate]	5.59	32.50	184 to 186
COC(=O)C1=C(C)NC(c2c(F)cc(F)cc2F)=NC1c1ccc(F)cc1Cl (stereo not drawn) [Example 59, methyl 2-(2,4,6-trifluorophenyl)-4-(2-chloro-4-fluorophenyl)-6-methyl-1,4-dihydro-pyrimidin-5-carboxylate]	5.47	>30.30	112 to 114
